Results reported in ChEMBL document CHEMBL1201862, “PubChem BioAssay data set” (2004).
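Growth conditions: 96-well plates. Treatment: test compound, 48 hours, 5 concentrations. Analysis: linear interpolation between bracketing concentrations; unreached endpoints set to highest concentration. Here, GI50 denotes the concentration required for 50% inhibition of growth.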 Calls of active or inactive are those of the source. No stated cut-off is given here; in the data, active = GI50 up to about 1.1 µM and inactive = higher.

Columns and labels:
Assay in all cases: growth of human tumour cells (NCI), 48 h
786-0 = system: 786-0
CCRF-CEM = system: CCRF-CEM
DU-145 = system: DU-145
HCC 2998 = system: HCC 2998
HL-60 = system: HL-60
K562 = system: K562
M14 = system: M14
MCF7 = system: MCF7
MDA-MB-231 = system: MDA-MB-231
NCI-H226 = system: NCI-H226
NCI-H23 = system: NCI-H23
NCI/ADR-RES = system: NCI/ADR-RES
OVCAR-8 = system: OVCAR-8
SK-OV-3 = system: SK-OV-3
SNB-19 = system: SNB-19
SR = system: SR
SW-620 = system: SW-620
T47D = system: T47D
TK-10 = system: TK-10
UACC-257 = system: UACC-257

Structure (SMILES) | GI50 (786-0) | GI50 (CCRF-CEM) | GI50 (DU-145) | GI50 (HCC 2998) | GI50 (HL-60) | GI50 (K562) | GI50 (M14) | GI50 (MCF7) | GI50 (MDA-MB-231) | GI50 (NCI-H226) | GI50 (NCI-H23) | GI50 (NCI/ADR-RES) | GI50 (OVCAR-8) | GI50 (SK-OV-3) | GI50 (SNB-19) | GI50 (SR) | GI50 (SW-620) | GI50 (T47D) | GI50 (TK-10) | GI50 (UACC-257)
c1ccc(CSc2nc(N3CCCCC3)c3cn[nH]c3n2)cc1 | 25.2 µM (inactive) | 44 µM (inactive) | 30.3 µM (inactive) | 18.7 µM (inactive) | 13.3 µM (inactive) | 40.3 µM (inactive) | 19.8 µM (inactive) | 26.9 µM (inactive) | 16.3 µM (inactive) | 18.8 µM (inactive) | 26.4 µM (inactive) | 61.2 µM (inactive) | 23.4 µM (inactive) | 36.6 µM (inactive) | 25.2 µM (inactive) | 25.3 µM (inactive) | 19.9 µM (inactive) | 21.9 µM (inactive) | 30.1 µM (inactive) | 18 µM (inactive)
NNC(=O)CC(=O)Nc1ccc(Cl)cc1 | > 100 µM (inactive) | > 100 µM (inactive) | > 100 µM (inactive) | > 100 µM (inactive) | > 100 µM (inactive) | 48.6 µM (inactive) | – | > 100 µM (inactive) | > 100 µM (inactive) | > 100 µM (inactive) | > 100 µM (inactive) | > 100 µM (inactive) | > 100 µM (inactive) | > 100 µM (inactive) | > 100 µM (inactive) | > 100 µM (inactive) | > 100 µM (inactive) | > 100 µM (inactive) | > 100 µM (inactive) | > 100 µM (inactive)
O=C(NC(=O)c1ccccc1[N+](=O)[O-])Nc1ccc(Oc2ncc(Cl)cn2)c([N+](=O)[O-])c1 | 0.225 µM (active) | 0.126 µM (active) | 0.291 µM (active) | 0.426 µM (active) | 0.0299 µM (active) | 0.0339 µM (active) | 0.175 µM (active) | 0.12 µM (active) | 0.281 µM (active) | 0.263 µM (active) | 0.411 µM (active) | 0.305 µM (active) | 1.78 µM (inactive) | 0.146 µM (active) | 2.02 µM (inactive) | 0.0638 µM (active) | 0.106 µM (active) | 0.414 µM (active) | > 100 µM (inactive) | 0.431 µM (active)
Nc1nc(Cl)cc(NCC2(O)CCC2)n1 | > 100 µM (inactive) | > 10 µM (inactive) | > 100 µM (inactive) | > 100 µM (inactive) | > 100 µM (inactive) | > 100 µM (inactive) | – | > 100 µM (inactive) | > 100 µM (inactive) | > 100 µM (inactive) | > 100 µM (inactive) | > 100 µM (inactive) | > 100 µM (inactive) | > 100 µM (inactive) | – | > 100 µM (inactive) | > 100 µM (inactive) | > 100 µM (inactive) | > 100 µM (inactive) | > 100 µM (inactive)
